Counter-ions that a name gives are not always drawn. Like-named read-outs stand apart in the source and are kept apart here.
Tests used:
Streptococcus pneumoniae = experiment: Activity in vitro: minimum inhibitory concentration; format: cell-based
Pseudomonas aeruginosa [1] = experiment: as above; format: cell-based
Escherichia coli [2] = experiment: as above; format: cell-based
Haemophilus influenzae = experiment: Activity in vivo: survival of intraperitoneally infected mice; settings: sc, 96 h; mice infected i.p. with Haemophilus influenzae; s.c. twice, 1 h and 3 h after infection; survival on 4th day; read-out: CD50 (dosage at which 50% of the animals survive)
Experimental: (§1) Groups of 5 mice are infected intraperitoneally with an aqueous suspension of various pathogens. The test substance in physiological sodium chloride solution is administered subcutaneously twice, i.e. 1 hour and 3 hours after the infection. The number of surviving animals is determined on the 4th day. Various dosages are administered and that dosage at which 50% of the experimental animals survive (CD50, mg/kg) is determined by interpolation.

Enterobacter cloacae [3] = experiment: as above; settings: sc, 96 h; mice infected i.p. with Enterobacter cloacae; s.c. twice, 1 h and 3 h after infection; survival on 4th day; read-out: CD50 (dosage at which 50% of the animals survive)
Experimental: as §1

Serratia marcescens [4] = experiment: as above; settings: sc, 96 h, mice infected i.p. with Serratia marcescens strain 1, s.c. twice, 1 h and 3 h after infection, survival on 4th day, read-out: CD50 (dosage at which 50% of the animals survive)
Experimental: as §1

Streptococcus pyogenes [5] = experiment: as above; settings: sc, 96 h; mice infected i.p. with Streptococcus pyogenes; s.c. twice, 1 h and 3 h after infection; survival on 4th day; read-out: CD50 (dosage at which 50% of the animals survive)
Experimental: as §1

Escherichia coli [6] = experiment: as above; settings: sc, 96 h; mice infected i.p. with Escherichia coli; s.c. twice, 1 h and 3 h after infection; survival on 4th day; read-out: CD50 (dosage at which 50% of the animals survive)
Experimental: as §1

Streptococcus faecalis = experiment: Activity in vitro: minimum inhibitory concentration; format: cell-based; settings: Enterococcus faecalis
Proteus morganii = experiment: as above; format: cell-based; settings: Morganella morganii
Pseudomonas aeruginosa [7] = experiment: Activity in vivo: survival of intraperitoneally infected mice; settings: sc, 96 h; mice infected i.p. with Pseudomonas aeruginosa; s.c. three times, 1 h, 3 h and 5 h after infection; survival on 4th day; read-out: CD50 (dosage at which 50% of the animals survive)
Experimental: as §1
*Administered subcutaneously three times: 1 hour, 3 hours and 5 hours

Staphylococcus aureus = experiment: Activity in vitro: minimum inhibitory concentration; format: cell-based
Citrobacter freundii = experiment: as above; format: cell-based
Proteus inconstans = experiment: as above; format: cell-based; settings: Providencia alcalifaciens
Streptococcus pyogenes [8] = experiment: as above; format: cell-based
Proteus mirabilis = experiment: as above; format: cell-based
Enterobacter cloacae [9] = experiment: as above; format: cell-based
Proteus rettgeri = experiment: as above; format: cell-based; settings: Providencia rettgeri
Klebsiella pseumoniae = experiment: as above; format: cell-based
Staphylococcus epidermis = experiment: as above; format: cell-based
Toxicity, LD50 = settings: in vivo
Serratia marcescens [10] = experiment: Activity in vitro: minimum inhibitory concentration; format: cell-based
Streptococcus viridans = experiment: as above; format: cell-based
Enterobacter aerogenes = experiment: as above; format: cell-based; settings: Klebsiella aerogenes
[11] = Pseudomonas aeruginosa strain 3
[12] = Streptococcus faecalis strain 1
[13] = Streptococcus faecalis strain 2
[14] = Streptococcus pyogenes strain 1, read-out: Minimum inhibitory concentration
[15] = Enterobacter aerogenes strain 1
[16] = Enterobacter aerogenes strain 2

## CO/N=C(\C(=O)N[C@@H]1C(=O)N2C(C(=O)[O-])=C(CSc3n[nH]c(=O)c(=O)n3C)CS[C@H]12)c1c[se]c(N)n1.[Na+] [Product G, (6R, 7R)-7-[2-(2-amino-4-selenazolyl)-2-[(Z)-methoxyimino]-acetamido]-8-oxo-3-[[(1,4,5,6-tetrahydro-4-methyl-5,6-dioxo-as-triazin-3-yl)thio]methyl]-5-thia-1-azabicyclo[4.2.0]oct-2-ene-2-carboxylic acid sodium salt]
Streptococcus pneumoniae
  MIC: 0.1 µg/mL
Pseudomonas aeruginosa [1]; Pseudomonas aeruginosa strain 1
  MIC: 50 µg/mL
Pseudomonas aeruginosa [1]; Pseudomonas aeruginosa strain 2
  MIC: 50 µg/mL
Pseudomonas aeruginosa [1]; [11]
  MIC: 25 µg/mL
Escherichia coli [2]; Escherichia coli strain 1
  MIC: 0.05 µg/mL
Escherichia coli [2]; Escherichia coli strain 2
  MIC: 0.012 µg/mL
Escherichia coli [2]; Escherichia coli strain 3
  MIC: 0.2 µg/mL
Escherichia coli [2]; Escherichia coli strain 4
  MIC: 0.2 µg/mL
Escherichia coli [2]; Escherichia coli strain 5
  MIC: 0.2 µg/mL
Haemophilus influenzae
  ED50: 0.25 mg/kg
Enterobacter cloacae [3]
  ED50: 9.2 mg/kg
Serratia marcescens [4]
  ED50: 0.2 mg/kg
Streptococcus pyogenes [5]
  ED50: 0.02 mg/kg
Escherichia coli [6]
  ED50: < 0.003 mg/kg
Streptococcus faecalis; [12]
  MIC: 25 µg/mL
Streptococcus faecalis; [13]
  MIC: 50 µg/mL
Proteus morganii
  MIC: 0.05 µg/mL
Pseudomonas aeruginosa [7]
  ED50: > 200 mg/kg
Staphylococcus aureus; Staphylococcus aureus strain 1
  MIC: 0.4 µg/mL
Staphylococcus aureus; Staphylococcus aureus strain 2
  MIC: 1.6 µg/mL
Staphylococcus aureus; Staphylococcus aureus strain 3
  MIC: 0.8 µg/mL
Staphylococcus aureus; Staphylococcus aureus strain 4
  MIC: 0.8 µg/mL
Citrobacter freundii; Citrobacter freundii strain 1
  MIC: 1.6 µg/mL
Citrobacter freundii; Citrobacter freundii strain 2
  MIC: 0.1 µg/mL
Proteus inconstans
  MIC: 0.006 µg/mL
Streptococcus pyogenes [8]; [14]
  MIC: 0.05 µg/mL
Proteus mirabilis; Proteus mirabilis strain 3
  MIC: 0.4 µg/mL
Proteus mirabilis; Proteus mirabilis strain 4
  MIC: 0.025 µg/mL
Proteus mirabilis; Proteus mirabilis strain 5
  MIC: 0.025 µg/mL
Enterobacter cloacae [9]; Enterobacter cloacae strain 1
  MIC: > 100 µg/mL
Enterobacter cloacae [9]; Enterobacter cloacae strain 2
  MIC: 0.8 µg/mL
Enterobacter cloacae [9]; Enterobacter cloacae strain 3
  MIC: 50 µg/mL
Proteus rettgeri
  MIC: 0.05 µg/mL
Klebsiella pseumoniae; Klebsiella pseumoniae strain 1
  MIC: 0.1 µg/mL
Klebsiella pseumoniae; Klebsiella pseumoniae strain 2
  MIC: 0.025 µg/mL
Klebsiella pseumoniae; Klebsiella pseumoniae strain 3
  MIC: 0.05 µg/mL
Staphylococcus epidermis
  MIC: 0.8 µg/mL
Toxicity, LD50; po
  LD50: > 5000 mg/kg
Toxicity, LD50; sc
  LD50: > 4000 mg/kg
Serratia marcescens [10]; Serratia marcescens strain 1
  MIC: 0.2 µg/mL
Serratia marcescens [10]; Serratia marcescens strain 2
  MIC: 0.4 µg/mL
Serratia marcescens [10]; Serratia marcescens strain 3
  MIC: 0.1 µg/mL
Streptococcus viridans
  MIC: 0.8 µg/mL
Enterobacter aerogenes; [15]
  MIC: 0.1 µg/mL
Enterobacter aerogenes; [16]
  MIC: 0.1 µg/mL

## CC(C)(O/N=C(\C(=O)N[C@@H]1C(=O)N2C(C(=O)[O-])=C(C[n+]3ccccc3)CS[C@H]12)c1c[se]c(N)n1)C(=O)O [Product K, 1-[[(6R, 7R)-7-[(Z)-2-(2-amino-4-selenazolyl)-2-[(1-carboxy-1-methylethoxy)imino]acetamido]-2-carboxy-8-oxo-5-thia-1-azabicyclo[4.2.0]oct-2-en-3-yl]methyl]pyridinium hydroxide sodium salt (internal salt)]
Streptococcus pneumoniae
  MIC: 0.1 µg/mL
Pseudomonas aeruginosa [1]; [11]
  MIC: 1.6 µg/mL
Escherichia coli [2]; Escherichia coli strain 1
  MIC: 0.4 µg/mL
Escherichia coli [2]; Escherichia coli strain 2
  MIC: 0.1 µg/mL
Escherichia coli [2]; Escherichia coli strain 3
  MIC: 0.8 µg/mL
Escherichia coli [2]; Escherichia coli strain 4
  MIC: 25 µg/mL
Escherichia coli [2]; Escherichia coli strain 5
  MIC: 0.4 µg/mL
Serratia marcescens [4]
  ED50: 0.11 mg/kg
Streptococcus pyogenes [5]
  ED50: 0.28 mg/kg
Streptococcus faecalis; [12]
  MIC: > 100 µg/mL
Streptococcus faecalis; [13]
  MIC: > 100 µg/mL
Proteus morganii
  MIC: 0.2 µg/mL
Pseudomonas aeruginosa [7]
  ED50: 1.1 mg/kg
Staphylococcus aureus; Staphylococcus aureus strain 1
  MIC: 12.5 µg/mL
Staphylococcus aureus; Staphylococcus aureus strain 2
  MIC: 50 µg/mL
Staphylococcus aureus; Staphylococcus aureus strain 3
  MIC: 12.5 µg/mL
Staphylococcus aureus; Staphylococcus aureus strain 4
  MIC: 12.5 µg/mL
Citrobacter freundii; Citrobacter freundii strain 1
  MIC: 12.5 µg/mL
Citrobacter freundii; Citrobacter freundii strain 2
  MIC: 0.4 µg/mL
Proteus inconstans
  MIC: 0.05 µg/mL
Streptococcus pyogenes [8]; [14]
  MIC: 0.4 µg/mL
Streptococcus pyogenes [8]; read-out: Minimum inhibitory concentration, Streptococcus pyogenes strain 2
  MIC: 0.1 µg/mL
Proteus mirabilis; Proteus mirabilis strain 3
  MIC: 0.4 µg/mL
Proteus mirabilis; Proteus mirabilis strain 4
  MIC: 0.1 µg/mL
Proteus mirabilis; Proteus mirabilis strain 5
  MIC: 0.05 µg/mL
Enterobacter cloacae [9]; Enterobacter cloacae strain 1
  MIC: > 100 µg/mL
Enterobacter cloacae [9]; Enterobacter cloacae strain 2
  MIC: 1.6 µg/mL
Enterobacter cloacae [9]; Enterobacter cloacae strain 3
  MIC: 100 µg/mL
Klebsiella pseumoniae; Klebsiella pseumoniae strain 1
  MIC: 0.8 µg/mL
Klebsiella pseumoniae; Klebsiella pseumoniae strain 2
  MIC: 0.2 µg/mL
Klebsiella pseumoniae; Klebsiella pseumoniae strain 3
  MIC: 0.8 µg/mL
Staphylococcus epidermis
  MIC: 12.5 µg/mL
Serratia marcescens [10]; Serratia marcescens strain 1
  MIC: 0.8 µg/mL
Serratia marcescens [10]; Serratia marcescens strain 2
  MIC: 0.8 µg/mL
Serratia marcescens [10]; Serratia marcescens strain 3
  MIC: 0.1 µg/mL
Streptococcus viridans
  MIC: 3.1 µg/mL
Enterobacter aerogenes; [15]
  MIC: 0.4 µg/mL
Enterobacter aerogenes; [16]
  MIC: 0.2 µg/mL

From patent publication US4593093A, “Acyl derivatives” (priority 1980, dated 1986)
